# From patent US20240148821A1, “PHARMACEUTICAL USE OF CYCLIC PEPTIDE COMPOUND” (CHUGAI SEIYAKU KABUSHIKI KAISHA, priority 2021, published 2024)
# Bridge positions count the residues as written; N and C are the ends. Square brackets hold non-standard residues; d marks the D form. Peptide text beside a SMILES is read from it. * marks the point of attachment. hPhe(3,5-F2-4-CF3) = N[C@@H](CCc1cc(F)c(C(F)(F)F)c(F)c1)C(=O)O; hPhe(3-Cl-4-CF3) = N[C@@H](CCc1ccc(C(F)(F)F)c(Cl)c1)C(=O)O; NMePhe(4-CF3) = CN[C@@H](Cc1ccc(C(F)(F)F)cc1)C(=O)O; NMeGly(cPent) = CN[C@H](C(=O)O)C1CCCC1; NMeCha = CN[C@@H](CC1CCCCC1)C(=O)O; Hyp = O=C(O)[C@@H]1C[C@@H](O)CN1; NMeChg = CN[C@H](C(=O)O)C1CCCCC1; NMeT = CN[C@H](C(=O)O)[C@@H](C)O; N(CH2CH2)2CF2 = FC1(F)CCN(*)CC1; NMeD = CN[C@@H](CC(=O)O)C(=O)O; NMeL = CN[C@@H](CC(C)C)C(=O)O; NEtAla = CCN[C@@H](C)C(=O)O; NMeV = CN[C@H](C(=O)O)C(C)C; d(β3hA) = C[C@@H](N)CC(=O)O; Morpholide = C1CN(*)CCO1; NMeA = CN[C@@H](C)C(=O)O; Piperidide = C1CCN(*)CC1; Ac5c = NC1(C(=O)O)CCCC1; Aze = O=C(O)[C@@H]1CCN1; Sar = CNCC(=O)O
# Columns and labels:
# [1] = molecular target: protein-protein interaction between Kras and SOS1 (biotin-tagged human Kras loaded with GDP, His-tagged human SOS1) (Homo sapiens (Human), UniProt P01116, G12D); test: Protein-protein interaction inhibition between Kras and SOS1 (KrasG12D-SOS PPI) using AlphaScreen; type: biochemical; settings: AlphaScreen; biotin-tagged human Kras loaded with GDP, His-tagged human SOS1; read-out: KRAS G12D-SOS PPI IC50;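 further: kras produced in E. coli, Ni-coupled donor beads and streptavidin acceptor beads, excitation 680 nm with emission detected at 520–620 nm via singlet oxygen transfer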
# [2] = system: Human pancreatic cancer cell line AsPC-1 (G12D mutation Kras); test: AsPC-1 cell growth inhibition (AsPC-1 CGI); type: cell-based; settings: read-out: AsPC-1 cell growth inhibition, 50% growth inhibitory concentration (IC50 value); 96 hours, CellTiter-Glo, values classified in ranges
# Description: Test compounds were serially dilated with dimethyl sulfoxide, and 200 nL was then dispensed to a U-bottom 96-well plate using Labcyte Echo. […] The cell suspension was dispensed to a. plate containing a test compound at 100 μL per well and incubated at 37° C. in a 5% carbon dioxide gas incubator. 96 hours later, 80 μL of CellTiter-Glo (Promega) was added to each well and fluorescence was measured.
# [3] = system: various cancer cell lines (Ras mutation or amplification); test: Measurement of cell growth inhibitory activity against various cancer cell lines (CellTiter-Glo); type: cell-based, human
# Description: Various cancer cell lines used were purchased from commercial suppliers. […] The cell suspension and culture medium supplemented with serum were dispensed to a plate containing the test compounds at 40 μL (384 well plate) or 200 μL (96 well plate) per well and incubated in a carbon dioxide gas incubator. […] Six days or seven days after the start of cultivation, 20 μL of CellTiter-Glo (Promega) was added to each well and fluorescence was measured.
# [4] = system: large bowel carcinoma cell line LS 180; test: In vivo antitumor activity, mouse xenograft model, LS 180; settings: LS 180 (Colon) xenograft, 7 days
# Excerpt: (§1) Tumor growth inhibition rate (TGI %)=(1−TV/CV)×100
# [5] = system: non-small cell lung cancer cell line NC1-1441 with a KRAS mutation; test: In vivo antitumor activity, mouse xenograft model, NCI-H441; settings: NCI-H441 (NSCLC) xenograft, 14 days
# Excerpt: as §1
# [6] = A4/Fuk, Non-Hodgkin lymphoma, KRAS Amp
# [7] = MIA PaCa-2, Pancreas, KRAS G12C
compound,measurement,setting,value
"CC[C@H](C)[C@@H]1NC(=O)[C@H](CC(C)C)N(C)C(=O)C[C@@H](C(=O)N2CCOCC2)N(C)C(=O)[C@H](C2CCCC2)N(C)C(=O)C2(CCCC2)NC(=O)[C@@H]2CCCN2C(=O)[C@H](CCc2ccc(C(F)(F)F)c(Cl)c2)NC(=O)CN(C)C(=O)[C@H](CC2CCCCC2)N(C)C(=O)[C@@H]2CCN2C(=O)[C@H](C)N(C)C1=O [Compound 926, (5S,8S,11S,15S,18S,23aS,29S,35S,37aS)-8-((S)-sec-butyl)-29-(3-chloro-4-(trifluoromethyl)phenethyl)-35-(cyclohexylmethyl)-18-cyclopentyl-11-isobutyl-5,6,12,16,19,33,36-heptamethyl-15-(morpholine-4-carbonyl)docosahydro-2H,4H-spiro[azeto[2,1-u]pyrrolo[2,1-i][1,4,7,10,13,16,19,22,25,28,31]undecaazacyclotetratriacontine-21,1′-cyclopentan]-4,7,10,13,17,20,23,28,31,34,37(14H,22H)-undecaone] ([NMeL]I[NMeA][Aze][NMeCha][Sar][hPhe(3-Cl-4-CF3)]P[Ac5c][NMeGly(cPent)][NMeD]-Morpholide; lactam N-11)",IC50,[1],0.99 nM
same,IC50,[2],≤ 20 nM
same,IC50,[3]; [6],1.28 nM
same,IC50,"[3]; A549, NSCLC, KRAS G12S",1.09 nM
same,IC50,"[3]; AGS, Stomach, KRAS G12D",1.46 nM
same,IC50,"[3]; AsPC-1, Pancreas, KRAS G12D",3.33 nM
same,IC50,"[3]; KURAMOCHI, Ovary, KRAS Amp",7.89 nM
same,IC50,"[3]; LS 180, Colon, KRAS G12D",5.39 nM
same,IC50,[3]; [7],8.93 nM
same,IC50,"[3]; NCI-H441, NSCLC, KRAS G12V",2.87 nM
same,IC50,"[3]; NCI-H929, Myeloma, NRAS G13D",18.8 nM
same,IC50,"[3]; NOMO-1, AML, KRAS G13D",29.1 nM
same,IC50,"[3]; SNU-1, Stomach, KRAS G12D",2.74 nM
same,IC50,"[3]; SW480, Colon, KRAS G12V",56.7 nM
same,TGI (%),[4]; 15 mg/kg once daily,29%
same,TGI (%),[4]; 30 mg/kg once daily,75%
"CCO[C@@H]1C[C@H]2C(=O)NC3(CCCC3)C(=O)N(C)[C@@H](C3CCCC3)C(=O)N(C)[C@H](C(=O)N(C)C)CC(=O)N(C)[C@@H](CC(C)C)C(=O)N[C@@H]([C@@H](C)CC)C(=O)N(C)[C@@H](C)C(=O)N3CC[C@H]3C(=O)N(C)[C@@H](CC3CCCCC3)C(=O)N(C)CC(=O)N[C@@H](CCc3cc(F)c(C(F)(F)F)c(F)c3)C(=O)N2C1 [Compound 1201, (5S,8S,11S,1S,18S,23aS,25R,29S,35S,37aS)-8-((S)-sec-butyl)-35-(cyclohexymethyl)-18-cyclopentyl-29-(3,5-difluoro-4-(trifluoromethyl)phenethyl)-25-ethoxy-11-isobutyl-N,N,5,6,12,16,19,33,36-nonamethyl-4,7,10,13,17,20,23,28,31,34,37-undecaoxotetratriacontahydro-2H,4H-spiro[azeto[2,1-u]pyrrolo[2,1-i][1,4,7,10,13,16,19,22,25,28,31]undecaazacyclotetratriacontine-21,1′-cyclopentane]-15-carboxamide] ([NMeL]I[NMeA][Aze][NMeCha][Sar][hPhe(3,5-F2-4-CF3)][Hyp](Et)[Ac5c][NMeGly(cPent)][NMeD]-NMe2; lactam N-11 (inferred); C-terminus assumed)",TGI (%),[5]; 3 mg/kg once daily,68%
same,TGI (%),[5]; 6 mg/kg once daily,92%
same,TGI (%),[5]; 10 mg/kg once daily,104%
same,IC50,[2],≤ 20 nM
same,IC50,[3]; [6],0.65 nM
same,IC50,"[3]; A549, NSCLC, KRAS G12S",0.25 nM
same,IC50,"[3]; AGS, Stomach, KRAS G12D",0.48 nM
same,IC50,"[3]; AsPC-1, Pancreas, KRAS G12D",0.84 nM
same,IC50,"[3]; HEC-151, Endometrium, NRAS G12D",2.3 nM
same,IC50,"[3]; KURAMOCHI, Ovary, KRAS Amp",2.63 nM
same,IC50,"[3]; LS 180, Colon, KRAS G12D",1.32 nM
same,IC50,[3]; [7],1.81 nM
same,IC50,"[3]; NCI-H441, NSCLC, KRAS G12V",0.89 nM
same,IC50,"[3]; NCI-H929, Myeloma, NRAS G13D",4.62 nM
same,IC50,"[3]; NOMO-1, AML, KRAS G13D",4.9 nM
same,IC50,"[3]; PA-1, Ovary, NRAS G12D",1.16 nM
same,IC50,"[3]; SW480, Colon, KRAS G12V",9.6 nM
CC[C@H](C)[C@@H]1NC(=O)[C@H](C(C)C)N(C)C(=O)C[C@@H](C)NC(=O)[C@H](CC(C)C)N(C)C(=O)C2(CCCC2)NC(=O)[C@H](CC(C)C)N(C)C(=O)[C@H](CCc2ccc(C(F)(F)F)c(Cl)c2)NC(=O)CN(C)C(=O)[C@H](CC2CCCCC2)N(C)C(=O)CN(C)C(=O)CN(C)C1=O [Compound 892] (cyclo([Ac5c][NMeL][d(β3hA)][NMeV]I[Sar][Sar][NMeCha][Sar][hPhe(3-Cl-4-CF3)][NMeL])),IC50,[1],68 nM
same,IC50,[2],> 500 nM
CC[C@H](C)[C@@H]1NC(=O)[C@H](CC(C)C)N(C)C(=O)C[C@@H](C(=O)N2CCCCC2)N(C)C(=O)[C@H](C(C)C)N(C)C(=O)C2(CCCC2)NC(=O)[C@@H]2CCCN2C(=O)[C@H](CCc2ccc(C(F)(F)F)c(Cl)c2)NC(=O)CN(C)C(=O)[C@H]([C@@H](C)O)N(C)C(=O)[C@@H]2CCN2C(=O)[C@H](C)N(C)C1=O [Compound 862] ([NMeL]I[NMeA][Aze][NMeT][Sar][hPhe(3-Cl-4-CF3)]P[Ac5c][NMeV][NMeD]-Piperidide; lactam N-11),IC50,[1],2.7 nM
same,IC50,[2],> 500 nM
CC[C@H](C)[C@@H]1NC(=O)[C@H](CC(C)C)N(C)C(=O)C[C@@H](C(=O)N2CCCCC2)N(C)C(=O)[C@H](C2CCCCC2)N(C)C(=O)C2(CCCC2)NC(=O)[C@H](C)N(CC)C(=O)[C@H](CCc2ccc(C(F)(F)F)c(Cl)c2)NC(=O)CN(C)C(=O)[C@H](CC2CCCCC2)N(C)C(=O)CN(C)C(=O)CN(C)C1=O [Compound 1045] ([NMeL]I[Sar][Sar][NMeCha][Sar][hPhe(3-Cl-4-CF3)][NEtAla][Ac5c][NMeChg][NMeD]-Piperidide; lactam N-11),IC50,[1],6.7 nM
same,IC50,[2],> 500 nM
CC[C@H](C)[C@@H]1NC(=O)[C@H](CC(C)C)N(C)C(=O)C[C@@H](C(=O)N(C)C)NC(=O)[C@H](C(C)C)N(C)C(=O)C2(CCCC2)NC(=O)[C@H](CC(=O)N2CCC(F)(F)CC2)N(C)C(=O)[C@H](CCc2ccc(C(F)(F)F)c(Cl)c2)NC(=O)CN(C)C(=O)[C@H](CC2CCCCC2)N(C)C(=O)CN(C)C(=O)CN(C)C1=O [Compound 97] ([NMeL]I[Sar][Sar][NMeCha][Sar][hPhe(3-Cl-4-CF3)][NMeD](N(CH2CH2)2CF2)[Ac5c][NMeV]D-NMe2; lactam N-11),IC50,[1],40 nM
same,IC50,[2],> 500 nM
CC[C@H](C)[C@@H]1NC(=O)[C@H](CC(C)C)N(C)C(=O)C[C@@H](C(=O)N2CCCCC2)N(C)C(=O)[C@H](C2CCCC2)N(C)C(=O)C2(CCCC2)NC(=O)[C@@H]2CCCN2C(=O)[C@H](CCc2ccc(C(F)(F)F)c(Cl)c2)NC(=O)CN(C)C(=O)[C@H](Cc2ccc(C(F)(F)F)cc2)N(C)C(=O)[C@@H]2CCN2C(=O)[C@H](C)N(C)C1=O [Compound 370] ([NMeL]I[NMeA][Aze][NMePhe(4-CF3)][Sar][hPhe(3-Cl-4-CF3)]P[Ac5c][NMeGly(cPent)][NMeD]-Piperidide; lactam N-11),IC50,[1],0.35 nM
same,IC50,[2],≤ 20 nM
